Legend:
[1] = Stability of aqueous drinking solutions; assay type: physicochemical
Protocol: Thy-Tau22 transgenic colonies (C57Bl/6J genetic background) were obtained by crossing heterozygous males C57Bl/6J with WT females. All animals were housed in a pathogen-free facility at 5 to 6 animals per cage (Techniplast Cages 1284L), with ad libitum access to food and water in a 12/12-hour light-dark cycle and maintained under a constant temperature of 22° C. For treatment, animals were randomly distributed and compound 30 or 31 was provided in the drinking water at a final concentration of 1 mg/kg, ie […] for drinking solutions taking into account an average weight of 25 g/mouse drinking 4 mL/day. […] Food consumption and bodyweight were also assessed. In WT animals, a pilot study of drug treatment was performed for one month to establish the innocuousness of compound 30 and 31 treatments. Thy-Tau22 females were treated for 1 months, starting at 6 months of age.

Aβ1-40 peptide secretion = experiment: Quantification of secreted Aβ1-40 by ELISA in SY5Y-APP695WT cells; assay type: cell-based; settings: Homo sapiens; concentration inhibiting 50% of Aβ1-40 peptide secretion in SY5Y cells; 24 h treatment; mean ± SD of at least two experiments in triplicate
Protocol: Cell culture and treatment. The human neuroblastoma cell line […] was maintained in Dulbecco's modified Eagle medium (DMEM, high glucose, pyruvate-GIBCO by Life Technologies) supplemented with 10% foetal bovine serum, 2 mM L-glutamine, 1 mM non-essential amino acids and penicillin/streptomycin (GIBCO by Life Technologies) at 37° C. in a 5% CO2 humidified incubator. […] cells were maintained in 75 cm^2 culture flasks (Falcon) with supplemented DMEM medium until they reached 80% of confluence 24 h before treatment. For compounds treatment, a 10 mM stock solution was diluted in freshly supplemented DMEM medium to obtain the precise final concentration of drug. Bafilomycin A1 (BafA1), the vacuolar […] type H+ ATPase inhibitor, was purchased from Merck Millipore and was used at a final dilution of 100 nM. For drug treatment, cells were plated at a rate of 5·10^5 cells per well into 12-well plates (Falcon) and cultured with 1 mL supplemented DMEM cell medium for 24 h before drug exposure. The following day, cell medium was replaced with fresh medium containing drugs diluted at the indicated concentrations. Cells were treated for 24 h. At the end of treatments, the cell medium was collected and kept at -80° C. until use for dosage. Then, cells were rinsed once with PBS and extracted in 100 μL of Laemmli buffer (10 mM Tris, 20% glycerol and 2% Sodium dodecyl sulfate) using a cell-scraper. The cell lysate was further sonicated (30 pulses of 0.5 s, 60 Hz) for 5 min. Total protein concentration was determined using the Pierce BCA Protein Assay Kit (Thermo scientific) according to the manufacturer's instructions. Samples were stored at -80° C. until analysis. Quantification of secreted Aβ1-40/1-42 and sAPPα/sAPPβ. Conditioned media of […] collected at the end of treatments were centrifuged at 1000 g for 5 min to eliminate cells debris. Aβ1-40 and Aβ1-42 peptide concentrations in […] were determined using amyloid-beta 40 and 42 Human ELISA kits (Invitrogen) according to the manufacturer's instructions after 1:10 and 1:2 dilutions of supernatants in ELISA buffer, respectively. sAPPα and sAPPβ concentrations in ng/mL were determined using the sAPPα/sAPPβ kit (Meso Scale Diagnostics, MSD®) according to the manufacturer's instructions. Compounds of the invention (compounds 24-37, 41, 44 and 51-58) were evaluated for their ability to modulate APP processing on SY5Y human neuroblastoma cell line stably expressing the neuronal isoform of human wild-type APP695 (SYSY-APPwt). Aβ levels (Aβ1-40 and Aβ1-42) after treatment with reference and tested compounds were measured by ELISA (Table 2). […] APP carboxy-terminal fragments (αCTFs and AICD) were measured by Western blot and quantified. The effect of reference and tested compounds on αCTFs and AICD are expressed as the intensity of corresponding western-blot bands resulting from the secretase cleavages.

stability of aqueous solutions [1]	IC50 (Aβ1-40 peptide secretion) [µM]	Compound
stable during more than one week	2.8 ± 1.2	CN(C)Cc1ccccc1-c1ccc(NCCCN2CCCCC2)c(OCCN2CCCCC2)c1 [Compound 30, 4-(2-[(Dimethylamino)methyl]phenyl)-2-[2-(piperidin-1-yl)ethoxy]-N-[3-(piperidin-1-yl)propyl]aniline]
stable during more than one week	2.1 ± 0.3	CN(C)Cc1ccccc1-c1ccc(NCCCN2CCCCC2)c(OCCC2CCCCC2)c1 [Compound 31, 3-(2-cyclohexylethoxy)-2′-((dimethylamino)methyl)-N-(3-(piperidin-1-yl)propyl)-[1,1′-biphenyl]-4-amine]
